Article PMC9965018, “Marine-Derived Natural Product HDYL-GQQ-495 Targets P62 to Inhibit Autophagy” (Marine Drugs, 2023)

Target: T1, P62 (P62/SQSTM1) (Homo sapiens, UniProt Q13501)
T1 construct: MBP-P62 (purified recombinant)
Assay: microscale thermophoresis (MST) with labelled MBP-P62, MBP as negative control; also induces polymerization of purified P62
Format: binding

T1 sequence (Q13501 2-440): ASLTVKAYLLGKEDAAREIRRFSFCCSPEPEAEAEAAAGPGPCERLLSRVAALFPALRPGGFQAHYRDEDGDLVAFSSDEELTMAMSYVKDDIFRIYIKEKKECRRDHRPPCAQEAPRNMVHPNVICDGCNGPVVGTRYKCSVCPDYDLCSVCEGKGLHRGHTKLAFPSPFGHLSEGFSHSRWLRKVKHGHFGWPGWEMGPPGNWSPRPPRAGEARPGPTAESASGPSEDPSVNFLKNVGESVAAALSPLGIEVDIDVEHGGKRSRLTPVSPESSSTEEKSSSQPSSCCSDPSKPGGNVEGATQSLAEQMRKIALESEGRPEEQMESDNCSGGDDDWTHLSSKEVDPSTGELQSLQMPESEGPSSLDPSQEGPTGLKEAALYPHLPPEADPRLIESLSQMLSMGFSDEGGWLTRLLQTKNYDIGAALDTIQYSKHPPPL

Kd: 11.2 ± 4.07 µM
SMILES: O=C(c1ccc(OCCN2CCCCC2)cc1)c1c(O)nc2ccc(O)c3c2c1-c1cccc(O)c1C3=O [HDYL-GQQ-495]
